Source: the supplement of paper PMC10307832

Assays:
Test in all cases: relative viability (nuclei count vs DMSO), 5 days (fraction); higher = more cells survive
BEN = test system: BEN
Summary of the method: (§1)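 Relative viability equals treated-well nuclei counts divided by vehicle-well nuclei counts. Counts came from 4× images of lung cancer cell lines grown in 1536-well plates for 5 days after pin-tool dosing on the day after seeding. Dosing used one drug alone or a fixed anchor-drug dose plus five library-drug doses (not always all listed) in √10 steps, and values are medians of duplicate plates.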

CAL-12T = test system: CAL-12T
Summary of the method: as §1

EKVX = test system: EKVX
Summary of the method: as §1

HCC-15 = test system: HCC-15
Summary of the method: as §1

HCC-366 = test system: HCC-366
Summary of the method: as §1

HCC-44 = test system: HCC-44
Summary of the method: as §1

LOU-NH91 = test system: LOU-NH91
Summary of the method: as §1

NCI-H1355 = test system: NCI-H1355
Summary of the method: as §1

NCI-H1395 = test system: NCI-H1395
Summary of the method: as §1

NCI-H1437 = test system: NCI-H1437
Summary of the method: as §1

NCI-H1563 = test system: NCI-H1563
Summary of the method: as §1

NCI-H1650 = test system: NCI-H1650
Summary of the method: as §1

NCI-H1651 = test system: NCI-H1651
Summary of the method: as §1

NCI-H1734 = test system: NCI-H1734
Summary of the method: as §1

NCI-H1755 = test system: NCI-H1755
Summary of the method: as §1

NCI-H1975 = test system: NCI-H1975
Summary of the method: as §1

NCI-H2023 = test system: NCI-H2023
Summary of the method: as §1

NCI-H2085 = test system: NCI-H2085
Summary of the method: as §1

NCI-H358 = test system: NCI-H358
Summary of the method: as §1

NCI-H460 = test system: NCI-H460
Summary of the method: as §1

NCI-H838 = test system: NCI-H838
Summary of the method: as §1

## Clc1ccc(Nc2nnc(Cc3ccncc3)c3ccccc23)cc1 [Vatalanib] + CS(=O)(=O)CCNCc1ccc(-c2ccc3ncnc(Nc4ccc(OCc5cccc(F)c5)c(Cl)c4)c3c2)o1 [Lapatinib] (partner 2 µM)
BEN; first compound 0.04 µM
  relative viability: 0.79
BEN; first compound 0.1265 µM
  relative viability: 0.554
BEN; first compound 0.4 µM
  relative viability: 0.806
BEN; first compound 1.265 µM
  relative viability: 0.657
BEN; first compound 4 µM
  relative viability: 0.767
CAL-12T; first compound 0.04 µM
  relative viability: 0.63
CAL-12T; first compound 0.1265 µM
  relative viability: 0.668
CAL-12T; first compound 1.265 µM
  relative viability: 0.678
CAL-12T; first compound 4 µM
  relative viability: 0.633
EKVX; first compound 0.04 µM
  relative viability: 0.195
EKVX; first compound 0.1265 µM
  relative viability: 0.238
EKVX; first compound 0.4 µM
  relative viability: 0.547
EKVX; first compound 1.265 µM
  relative viability: 0.186
EKVX; first compound 4 µM
  relative viability: 0.216
HCC-15; first compound 0.04 µM
  relative viability: 0.874
HCC-15; first compound 0.1265 µM
  relative viability: 0.699
HCC-15; first compound 0.4 µM
  relative viability: 0.853
HCC-15; first compound 1.265 µM
  relative viability: 0.825
HCC-15; first compound 4 µM
  relative viability: 0.837
HCC-366; first compound 0.04 µM
  relative viability: 1.02
HCC-366; first compound 0.1265 µM
  relative viability: 0.93
HCC-366; first compound 0.4 µM
  relative viability: 1.06
HCC-366; first compound 1.265 µM
  relative viability: 0.937
HCC-366; first compound 4 µM
  relative viability: 1.03
HCC-44; first compound 0.04 µM
  relative viability: 1.01
HCC-44; first compound 0.1265 µM
  relative viability: 0.941
HCC-44; first compound 0.4 µM
  relative viability: 1.02
HCC-44; first compound 1.265 µM
  relative viability: 0.986
HCC-44; first compound 4 µM
  relative viability: 0.986
LOU-NH91; first compound 0.04 µM
  relative viability: 0.763
LOU-NH91; first compound 0.1265 µM
  relative viability: 0.741
LOU-NH91; first compound 0.4 µM
  relative viability: 0.802
LOU-NH91; first compound 1.265 µM
  relative viability: 0.689
LOU-NH91; first compound 4 µM
  relative viability: 0.664
NCI-H1355; first compound 0.04 µM
  relative viability: 1.02
NCI-H1355; first compound 0.1265 µM
  relative viability: 0.934
NCI-H1355; first compound 0.4 µM
  relative viability: 1.14
NCI-H1355; first compound 1.265 µM
  relative viability: 0.86
NCI-H1355; first compound 4 µM
  relative viability: 0.887
NCI-H1395; first compound 0.04 µM
  relative viability: 1.16
NCI-H1395; first compound 0.1265 µM
  relative viability: 0.929
NCI-H1395; first compound 0.4 µM
  relative viability: 0.948
NCI-H1395; first compound 1.265 µM
  relative viability: 1.01
NCI-H1395; first compound 4 µM
  relative viability: 0.864
NCI-H1437; first compound 0.04 µM
  relative viability: 0.856
NCI-H1437; first compound 0.1265 µM
  relative viability: 0.779
NCI-H1437; first compound 0.4 µM
  relative viability: 0.934
NCI-H1437; first compound 1.265 µM
  relative viability: 0.734
NCI-H1437; first compound 4 µM
  relative viability: 0.848
NCI-H1563; first compound 0.04 µM
  relative viability: 0.994
NCI-H1563; first compound 0.1265 µM
  relative viability: 0.91
NCI-H1563; first compound 0.4 µM
  relative viability: 1.12
NCI-H1563; first compound 1.265 µM
  relative viability: 0.945
NCI-H1563; first compound 4 µM
  relative viability: 0.777
NCI-H1650; first compound 0.04 µM
  relative viability: 0.799
NCI-H1650; first compound 0.1265 µM
  relative viability: 0.644
NCI-H1650; first compound 0.4 µM
  relative viability: 0.959
NCI-H1650; first compound 1.265 µM
  relative viability: 0.752
NCI-H1650; first compound 4 µM
  relative viability: 0.63
NCI-H1651; first compound 0.04 µM
  relative viability: 0.921
NCI-H1651; first compound 0.1265 µM
  relative viability: 0.868
NCI-H1651; first compound 0.4 µM
  relative viability: 0.947
NCI-H1651; first compound 1.265 µM
  relative viability: 0.899
NCI-H1651; first compound 4 µM
  relative viability: 0.835
NCI-H1734; first compound 0.04 µM
  relative viability: 0.919
NCI-H1734; first compound 0.1265 µM
  relative viability: 1.02
NCI-H1734; first compound 0.4 µM
  relative viability: 1.11
NCI-H1734; first compound 1.265 µM
  relative viability: 1.06
NCI-H1734; first compound 4 µM
  relative viability: 1.09
NCI-H1755; first compound 0.04 µM
  relative viability: 1.02
NCI-H1755; first compound 0.1265 µM
  relative viability: 1.02
NCI-H1755; first compound 0.4 µM
  relative viability: 1.09
NCI-H1755; first compound 1.265 µM
  relative viability: 0.946
NCI-H1755; first compound 4 µM
  relative viability: 0.951
NCI-H1975; first compound 0.04 µM
  relative viability: 0.856
NCI-H1975; first compound 0.1265 µM
  relative viability: 0.827
NCI-H1975; first compound 0.4 µM
  relative viability: 0.942
NCI-H1975; first compound 1.265 µM
  relative viability: 0.808
NCI-H1975; first compound 4 µM
  relative viability: 0.769
NCI-H2023; first compound 0.04 µM
  relative viability: 0.749
NCI-H2023; first compound 0.1265 µM
  relative viability: 0.725
NCI-H2023; first compound 0.4 µM
  relative viability: 1.05
NCI-H2023; first compound 1.265 µM
  relative viability: 0.681
NCI-H2023; first compound 4 µM
  relative viability: 0.736
NCI-H2085; first compound 0.04 µM
  relative viability: 0.818
NCI-H2085; first compound 0.1265 µM
  relative viability: 0.736
NCI-H2085; first compound 0.4 µM
  relative viability: 0.891
NCI-H2085; first compound 1.265 µM
  relative viability: 0.701
NCI-H2085; first compound 4 µM
  relative viability: 0.723
NCI-H358; first compound 0.04 µM
  relative viability: 0.498
NCI-H358; first compound 0.1265 µM
  relative viability: 0.429
NCI-H358; first compound 0.4 µM
  relative viability: 0.564
NCI-H358; first compound 1.265 µM
  relative viability: 0.355
NCI-H358; first compound 4 µM
  relative viability: 0.457
NCI-H460; first compound 0.04 µM
  relative viability: 1.04
NCI-H460; first compound 0.1265 µM
  relative viability: 0.848
NCI-H460; first compound 0.4 µM
  relative viability: 0.931
NCI-H460; first compound 1.265 µM
  relative viability: 0.845
NCI-H460; first compound 4 µM
  relative viability: 0.898
NCI-H838; first compound 0.04 µM
  relative viability: 1.06
NCI-H838; first compound 0.1265 µM
  relative viability: 0.944
NCI-H838; first compound 0.4 µM
  relative viability: 1.09
NCI-H838; first compound 1.265 µM
  relative viability: 0.841
NCI-H838; first compound 4 µM
  relative viability: 0.961
